{"source": "patent US20240024307A1", "about": "“PHARMACEUTICAL COMBINATION OF A CORTICOSTEROID AND AN ANTIHISTAMINE FOR THE TREATMENT AND CONTROL OF THE INFLAMMATORY COMPONENT OF ALLERGIC PROCESSES” (priority 2020, published 2024)", "key": {"[1]": {"experiment": "Comparative bioavailability study, 5 mg desloratadine and 0.25 mg betamethasone alone or in combination, single dose, healthy subjects, fasting", "details": "analyte desloratadine, 5 mg single dose", "from_the_text": "The study design was crossover, 3×6×3 open, prospective, and longitudinal, truncated to single dose.\nThree treatments, three periods, six sequences with an elimination period of 14 days and with a total of 24 healthy subjects of both genders, in fasting conditions."}, "[2]": {"details": "40° C. and 75% RH; alone or in combination with various excipients; cited from earlier work"}}, "data": [{"smiles": "Clc1ccc2c(c1)CCc1cccnc1C2=C1CCNCC1", "note": "[Desloratadine, desloratadine]", "values": [{"measurement": "Elimination constant Ke", "setting": "[1]", "result": "0.0408 ± 0.009", "unit": "h⁻¹"}, {"measurement": "colour stability", "setting": "[2]", "result": "exhibits color changes"}]}]}
